Assay results published in patent publication US20160158231A1, “PYRIMIDINE HYDROXY AMIDE COMPOUNDS FOR TREATING PERIPHERAL NEUROPATHY” (VIB VZW, priority 2014, published 2016).
Entries after “also recorded” stand apart in the source; their conditions may differ.

Tests used:
[1] = test system: vincristine-induced neuropathic pain model in rats; assay: Vincristine-induced neuropathic pain model in rats (Von Frey test); type: in vivo, rat
Description: Neuropathic pain is induced by injecting 5 ml/kg Vincristine (50 μg/kg) administered daily IP for a period of 12 days. The development of neuropathic pain is confirmed by measuring of mechanical allodynia (Von Frey test) on study day 13.
Allodynic response to tactile stimulation is assessed using the Von Frey apparatus (Touch Test®).
The rat will be placed in an enclosure and positioned on a metal mesh surface, but allowed to move freely. The rats' cabins are covered with red cellophane to diminish environmental disturbances. The test begins after a cessation of exploratory behavior. The set of Von Frey monofilaments provide an approximate logarithmic scale of actual force and a linear scale of perceived intensity.
The operating principle: when the tip of a fiber of given length and diameter is pressed against the skin at right angles, the force of application increases as long as the researcher continues to advance the probe until the fiber bends. After the fiber bends, the probe continues to advance, causing the fiber to bend more, but without additional force being applied. […] The Touch Test™ Sensory Evaluator can be used on the plantar surfaces of the rat's foot. The animal indicates sensation by pulling back its paw. The minimal force needed to elevate the withdrawal reflex is considered/designated as the value of reference. In order to achieve paw withdrawal, the pressure applied is sometimes greater than 60 g, often requiring the researcher to apply enough pressure with the Von Frey filament to actually lift the paw of the naive animal. Decreases in force needed to induce withdrawal are indicative of allodynia, as the force applied is a non-painful stimulus under normal conditions.

[2] = Mouse pharmacokinetic studies (plasma and brain); type: in vivo; conditions: male, C57BL/6, mouse, iv, 1 mg/kg, read-out: Mouse brain to plasma ratio
Description: Male C57BL/6 mice were fasted overnight. Compounds A and B were dissolved in dimethyl acetamide at 10 times the final concentration, then Solutol HS 15 (BASF) was added to a final concentration of 10%. Finally 80% saline was added and vortexed to achieve a clear solution. Fifteen animals were injected via the tail vein with 1 mg/kg compound. Blood was collected by retro-orbital bleed at 5 minutes, 15 minutes, 30 minutes, 1 hour, 2 hours, 4 hours, 8 hours and 24 hours after dosing. At 5 minutes, 30 minutes, 1 hour and 4 hours after dosing three animals per time point were sacrificed and brains were removed. The blood was centrifuged at 2000 g for 5 minutes at 4° C. to obtain plasma. Brain samples were homogenized in PBS. The plasma and brain homogenate were extracted with acetonitrile and the level of compound was analyzed by LC/MS/MS. The level of compound in plasma was calculated from a standard curve in rat plasma and the level in brain was calculated from a standard curve in brain homogenate. The area under the curve in plasma and brain were calculated using WinNonLin software. The brain to plasma ratio was determined using the area under the curve values for the two compartments.

[3] = test system: HDAC6 (acetylated α-tubulin) in Neuro2a cells; assay: Acetylated α-tubulin in Neuro2a cells (Western blot, staining): potency to inhibit HDAC6; conditions: for acetylated α-tubulin levels on Western blot / acetylated α-tubulin, staining of treated cells: 1 μM; for acetylated α-tubulin levels on Western blot: compared to DMSO; for acetylated α-tubulin, staining of treated cells: immunofluorescent staining; for relative potency to increase acetylated α-tubulin (dose-response): Western blot, different concentrations
HSPB1^S135F DRG neurons [4] = assay: Axonal transport of mitochondria in DRG neurons cultured from HSPB1 S135F mice; type: cell-based, mouse; conditions: 2.5 μM; for amount of stationary mitochondria / number of moving mitochondria in the neurites / number of total mitochondria in the neurites: vs DMSO
From the text: Both compounds were able to increase the number of moving mitochondria in the neurites of HSPB1^S135F DRG neurons (FIGS. 4A and 4D).

[5] = Rat pharmacokinetic studies; type: in vivo; conditions: plasma, male SD rats, IV 1 mg/kg
Description: Male SD rats were fasted overnight. Compounds A and B were dissolved in dimethyl acetamide at 10 times the final concentration, then Solutol HS 15 (BASF) was added to a final concentration of 10%. Finally 80% saline was added and vortexed to achieve a clear solution. For the IV dosing three animals were injected via the foot dorsal vein with 1 mg/kg compound. For the PO dosing 5 mg/kg of compound was delivered by oral gavage. Blood was collected via the tail vein into K2EDTA tubes at 5 minutes, 15 minutes, 30 minutes, 1 hour, 2 hours, 4 hours, 8 hours and 24 hours after dosing. The blood was centrifuged at 2000 g for 5 minutes at 4° C. to obtain plasma. The plasma was extracted with acetonitrile and the level of compound was analyzed by LC/MS/MS. The level of compound in plasma was calculated from a standard curve in rat plasma. The IV clearance and area under the curve were calculated using WinNonLin software. The dose adjusted area under the curve for the IV and oral dosing were used to calculate the oral bioavailability.

[6] = test system: acetylated histone 3 (H3) in Neuro2a cells; assay: Acetylation status of histone 3 in Neuro2a cells: selectivity; type: cell-based, mouse; conditions: 1 μM; for acetylation of H3 on Western blot: ratio acetylated H3/H4 normalized to DMSO
[7] = test system: C57B16/J mice, vincristine-induced sensory neuropathy; type: in vivo, mouse
Description: To study whether treatment with vincristine in vivo could induce a peripheral neuropathy, C57B16/J mice were injected intraperitoneally with vincristine on a daily basis. First, the animals were injected with different doses of vincristine. As sensory rather than motor problems are more pronounced in vincristine associated neuropathy patients, the Sensory Nerve Action Potentials (SNAPs) of the dorsal caudal tail nerve were first evaluated (FIG. 6A).
These animals were co-treated with vincristine and a selective HDAC6-inhibitor (Tubastatin A) to study the therapeutic potential of HDAC6-inhibition. […] A motor phenotype in our mice after vincristine treatment was not detected (results not shown).

[8] = test system: taxol-induced neuropathic pain model in rats; assay: Taxol-induced neuropathic pain model in rats (Von Frey test); type: in vivo, rat
Description: A study was conducted to extend the previous findings in the vincristine model to a different model of chemotherapy-induced neuropathy, the taxol-induced neuropathic pain model in rats.
Neuropathic pain is induced by a 0.5 ml/kg injection of taxol (2 mg/kg) administered IP on days 0-12. The development of neuropathic pain is confirmed by measuring mechanical allodynia (Von Frey test) on study day 13 as described above.
Pain was assessed using Von-Frey (VF) test for tactile allodynia on study days 13-15. The Rotarod Test was used to assess motor/coordination function.
Neuropathic pain was induced by a 0.5 ml/kg injection of taxol (2 mg/kg) administered IP on study days 0-12. The development of neuropathic pain was confirmed by measuring mechanical allodynia (Von Frey test) on study day 13.

mutant HSPB1^S135F mice [9] = assay: Motor and sensory deficits of mutant HSPB1 S135F mice (CMT2 model); type: in vivo, mouse; conditions: 3 mg/kg, daily IP injection, symptomatic animals
From the text: From the age of 6 months on, mutant HSPB1^S135F mice display motor and sensory deficits (d'Ydewalle et al., 2011). […] A positive trend for all the compounds tested was observed.

mutant HSPB1^S135F mice [10] = conditions: d'Ydewalle et al., 2011; cited from earlier work
HSPB1^S135F DRG neurons [11] = conditions: d'Ydewalle et al., 2011; cited from earlier work

SMILES	Kp [2]	acetylated α-tubulin levels on Western blot [3]	acetylated α-tubulin, staining of treated cells [3]	levels of acetylated α-tubulin in the neurites (staining) (HSPB1^S135F DRG neurons [4])	amount of stationary mitochondria (HSPB1^S135F DRG neurons [4])	number of moving mitochondria in the neurites (HSPB1^S135F DRG neurons [4])	number of total mitochondria in the neurites (HSPB1^S135F DRG neurons [4])	clearance [5]	acetylation of H3 on Western blot [6]	relative potency to increase acetylated α-tubulin (dose-response) [3]	amplitude of the compound muscle action potential (CMAP) (mutant HSPB1^S135F mice [9])	restoration of motor and sensory defects (mutant HSPB1^S135F mice [10])	also measured
O=C(NO)c1cnc(NC2(c3ccccc3)CC2)nc1 [Compound A, N-hydroxy-2-((1-phenylcyclopropyl)amino)pyrimidine-5-carboxamide]	1.23	significant increase	increased levels	increased	remains unchanged	increase	increase	100 mL/min/kg	do not change	–	–	–	increasing the withdrawal force (Von Frey) ([1]; 3 mg/kg PO b.i.d.): not active; animals waking ability ([1]; 3 mg/kg and 10 mg/kg PO starting from study day 7): trend of improvement; Von Frey withdrawal force ([1]; 10 mg/kg PO b.i.d., study day 13, vehicle 9.45±0.66 g, ns): 11.00 ± 1.07 g; Von Frey withdrawal force ([1]; 10 mg/kg PO b.i.d., study day 15, vehicle 14.50±1.51 g, p<0.05): 33.85 ± 6.96 g; Von Frey force ([1]; 10 mg/kg, study days 14-15): significantly decreased; sensory neuropathy induced by vincristine (SNAP) ([7]; 25 mg/kg/day intraperitoneal, one week, co-treatment with vincristine): seems to reduce the sensory neuropathy; Von Frey withdrawal force ([8]; 3 mg/kg PO b.i.d., 2 hours post dosing, study day 15, vehicle 13.21±1.49 g): 53.20 ± 2.78 g; Von Frey withdrawal force ([8]; 10 mg/kg PO b.i.d., study day 13 post dosing, vehicle 15.33±2.13 g): 53.11 ± 4.77 g; reversing pain (conclusion) ([8]; doses of 3 mg/kg and 10 mg/kg): active in reversing pain
O=C(NO)c1cnc(NC2(c3cccc(F)c3)CCCCC2)nc1 [Compound B, 2-((1-(3-fluorophenyl)cyclohexyl)amino)-N-hydroxypyrimidine-5-carboxamide]	1.28	significant increase	increased levels	increased	remains unchanged	increase	increase	38.3 mL/min/kg	do not change	more potent	statistical significant rescue; also recorded: can restore	–	–
NCC1(CC(=O)O)CCCCC1 [Gabapentin, reference compound]	–	–	–	–	–	–	–	–	–	–	–	–	Von Frey withdrawal force ([1]; 150 mg/kg IP, study day 15, vehicle 14.50±1.51 g): 43.95 ± 5.00 g; Von Frey withdrawal force ([8]; 150 mg/kg IP, 2 hours post dosing, study day 15, vehicle 13.21±1.49 g): 54.90 ± 3.63 g
CC(/C=C/C(=O)NO)=C\[C@@H](C)C(=O)c1ccc(N(C)C)cc1 [TSA, Trichostatin A, reference compound]	–	–	increased levels	–	–	–	–	–	increases	more potent	–	can be restored	acetylated H3 in nuclei, staining of treated cells ([6]; immunofluorescent staining): more acetylated H3
CN1CCc2c(c3ccccc3n2Cc2ccc(C(=O)NO)cc2)C1 [Tubastatin A]	–	–	–	–	–	–	–	–	–	–	can restore	can be restored	rescue of the axonal transport defect of mitochondria (HSPB1^S135F DRG neurons [11]): could be rescued
CC[C@]1(O)C[C@H]2CN(CCc3c([nH]c4ccccc34)[C@@](C(=O)OC)(c3cc4c(cc3OC)N(C=O)[C@H]3[C@@](O)(C(=O)OC)[C@H](OC(C)=O)[C@]5(CC)C=CCN6CC[C@]43[C@@H]65)C2)C1 [vincristine]	–	–	–	–	–	–	–	–	–	–	–	–	reduction in SNAP amplitude compared to vehicle treated mice ([7]; C57B16/J, mouse, in vivo, ip, 7 days): 35.4%; motor phenotype ([7]; mouse, in vivo): not detected; SNAP latencies ([7]; mouse, in vivo, ip): unaffected
